Test results as given in US4761415A, “Dopamine-β-hydroxylase inhibitors” (SmithKline Beckman Corporation, priority 1986, dated 1988).
Structures can show the parent of a compound that is named as a salt.

Key:
[1] = target: T1, dopamine-β-hydroxylase (DBH) (Bos taurus, UniProt P15101); assay: biochemical; conditions: molar concentration at which DBH activity was halved
T1 sequence (P15101 1-610): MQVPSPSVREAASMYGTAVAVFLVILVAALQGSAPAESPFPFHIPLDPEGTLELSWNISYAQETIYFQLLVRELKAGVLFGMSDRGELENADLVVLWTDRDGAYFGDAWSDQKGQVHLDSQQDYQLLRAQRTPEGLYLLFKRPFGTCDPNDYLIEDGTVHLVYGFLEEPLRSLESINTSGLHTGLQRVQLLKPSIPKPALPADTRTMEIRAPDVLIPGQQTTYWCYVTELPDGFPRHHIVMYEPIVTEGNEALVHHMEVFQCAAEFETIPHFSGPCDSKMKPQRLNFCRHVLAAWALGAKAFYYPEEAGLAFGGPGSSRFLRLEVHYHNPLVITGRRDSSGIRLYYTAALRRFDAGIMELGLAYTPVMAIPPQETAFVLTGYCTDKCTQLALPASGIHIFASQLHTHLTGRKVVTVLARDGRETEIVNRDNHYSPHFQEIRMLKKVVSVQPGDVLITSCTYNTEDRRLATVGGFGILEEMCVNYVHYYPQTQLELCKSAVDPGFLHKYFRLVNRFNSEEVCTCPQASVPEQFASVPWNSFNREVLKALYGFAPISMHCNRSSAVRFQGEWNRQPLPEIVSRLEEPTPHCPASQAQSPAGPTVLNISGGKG
Method: J. J. Pisano, et al., Biochim. Biophys. Acta, 43, 566-568 (1960). Octopamine was assayed following sodium periodate oxidation to p-hydroxybenzaldehyde by measuring spectrophotometric absorbance at 330 nm.

[2] = inhibition of cytochrome P450-dependent mixed function oxidase catalyzed deethylation of ethoxycoumarin; type: in vitro ADME; conditions: read-out: P-450 IC50
Method: The compounds listed in Table I also were evaluated for their ability to inhibit cytochrome P450-dependent mixed function oxidase catalyzed deethylation of ethoxycoumarin by the procedure of […] and Poland, J. Pharmacol. Exp. Ther., 205, 596-605 (1978).

[3] = system: DBH; conditions: cited from earlier work
[4] = Ehrreich et al., 1976; cited from earlier work
[5] = system: spontaneously hypertensive rats; assay: mean arterial blood pressure in spontaneously hypertensive rats; type: in vivo, rat; conditions: 50 mg/kg intraperitoneally; for time to significant blood pressure reduction following treatment / blood pressure reduction (in words): compared to vehicle-treated controls; for blood pressure reduction (in words): within 30 minutes; for maximal blood pressure reduction: monitored for 260 minutes, indwelling cannulae in tail arteries
Method: Further, spontaneously hypertensive rats were treated with a suspension or solution of 3-mercapto-4-benzyl-5-[(4-methyl-piperazinyl)methyl]-1,2,4-triazole or 3-mercapto-4-(3-fluorobenzyl)-5[(4-methyl-1-piperazinyl)methyl]-1,2,4-triazole at a dose of 50 mg/kg intraperitoneally, and mean arterial blood pressure was monitored for 260 minutes using indwelling cannulae in the tail arteries. […] The maximal blood pressure reductions were approximately 25 and 40 mmHg, respectively, for each of the administered compounds.

[6] = Teresawa et al., Japan. Cir. J. 35, 339 (1971); cited from earlier work

Row | IC50 [1] | IC50 [2] | Compound | DBH inhibition (in words, literature) [3] | further results
1 | 1.2 µM | 12 µM | Fc1cc(F)cc(Cn2ccnc2S)c1 [1-(3,5-difluorobenzyl)-2-mercapto imidazole, reference compound] | – | –
2 | 90 µM | 700 µM | CN1CCN(Cc2nnc(S)n2Cc2ccccc2)CC1 [3-mercapto-4-benzyl-5-[(4-methyl-1-piperazinyl)methyl]-1,2,4-triazole hydrochloride] | – | –
3 | – | – | O=C(O)c1ccc(CCC(Br)CBr)cn1 (stereo not shown) [5-(3,4-dibromobutyl)picolinic acid] | DBH inhibitors | –
4 | – | – | O=C(O)c1ccc(CCCCCl)cn1 [5-(4-chlorobutyl) picolinic acid] | inhibit DBH | –
5 | – | – | CN(C)C(=S)SCc1ccc(C(=O)O)nc1 [5-(dimethyldithiocarbamoylmethyl)picolinic acid] | DBH inhibitors | –
6 | – | – | NOCc1ccccc1 [Benzyloxyamine, benzyloxyamine] | apparently act as competitive inhibitors | –
7 | – | – | CCCCc1ccc(C(N)=O)nc1 [Bupicomide, 5-(n-butyl)picolinamine] | DBH inhibitor | antihypertensive activity [4]: has antihypertensive activity
8 | – | – | CN1CCN(Cc2nnc(S)n2Cc2ccccc2)CC1 [Example 1, 3-Mercapto-4-benzyl-5-[(4-methyl-1-piperazinyl)methyl]-1,2,4-triazole] | – | time to significant blood pressure reduction following treatment [5]: ≤ 30 min; blood pressure reduction (in words) [5]: significant blood pressure reductions; maximal blood pressure reduction [5]: approximately 25 mmHg
9 | 60 µM | 375 µM | CN1CCN(Cc2nnc(S)n2Cc2cccc(F)c2)CC1 [Example 2, 3-Mercapto-4-(3-fluorobenzyl)-5-[(4-methyl-1-piperazinyl)methyl]-1,2,4-triazole] | – | time to significant blood pressure reduction following treatment [5]: ≤ 30 min; blood pressure reduction (in words) [5]: significant blood pressure reductions; maximal blood pressure reduction [5]: ~40 mmHg
10 | 50 µM | 350 µM | CN1CCN(Cc2nnc(S)n2Cc2cc(F)cc(F)c2)CC1 [Example 3, 3-Mercapto-4-(3,5-difluorobenzyl)-5-[(4-methyl-1-piperazinyl)methyl]-1,2,4-triazole] | – | –
11 | – | – | CCCCc1ccc(C(=O)O)nc1 [Fusaric acid] | – | hepatotoxicity [6]: hepatotoxic
12 | – | – | NNCc1ccccc1 [benzylhydrazine] | apparently act as competitive inhibitors | –
